Values after ≈ are worked out from the molar mass of the structure shown.
details: buffer; pH 7.4; 200.0 µM

solubility kinetic | Structure (SMILES)
> 50.8 µg/mL | CC(C)=C(NC(=O)c1ccccc1)C(=O)Nc1ccc(C(=O)O)cc1
> 53.8 µg/mL | O=C(Nc1ccc(OCC(=O)N2CCOCC2)cc1)c1ccccc1F
3.9 µg/mL (≈ 11.4 µM) | NS(=O)(=O)c1ccc(CNC(=O)c2ccc3ccccc3n2)cc1
46 µg/mL (≈ 115 µM) | COc1ccc(NC(=O)CCCC(=O)NCCc2ccc(OC)c(OC)c2)cc1
30.5 µg/mL (≈ 95.5 µM) | Cn1c(=O)oc2cc(S(=O)(=O)NCc3cccnc3)ccc21
> 52.8 µg/mL | O=C(NC(=S)Nc1ccc(O)cc1)c1cncc(Br)c1
> 33.9 µg/mL | O=C(CCc1ccccc1)Nc1cccnc1
22.5 µg/mL (≈ 61.4 µM) | O=C(COC(=O)c1ccccc1Br)NCCC1=CCCCC1
32.7 µg/mL (≈ 110 µM) | CC(C)Cn1cnc2c1c(=O)[nH]c(=O)n2Cc1ccccc1
9.5 µg/mL (≈ 34.4 µM) | CCOC(=O)c1nc(NCc2ccccc2)sc1C
45.8 µg/mL (≈ 140 µM) | COc1ccccc1NC(=O)Nc1ccc(N2CCOCC2)cc1
6.7 µg/mL (≈ 15.7 µM) | COc1ccc(Cl)cc1NC(=O)CN1C(=O)NC(Cc2c[nH]c3ccccc23)C1=O (centres undefined)
> 47.4 µg/mL | COc1ccc(Cl)cc1NS(=O)(=O)c1cn(C)nc1C
< 0.7 µg/mL | O=C(Nc1ccc(Cl)c(Cl)c1)c1ccc2c(c1)OCO2
> 43.7 µg/mL | Cc1ccc(OCc2ccc(C(=O)NN)o2)c([N+](=O)[O-])c1
0.3 µg/mL (≈ 0.954 µM) | CCc1cc2ccccc2nc1SCC(=O)NC1CCCC1
45 µg/mL (≈ 143 µM) | COC(=O)c1cc(S(=O)(=O)N(C)C2CCCCC2)cn1C
< 0.3 µg/mL | Cc1ccc(NC(=O)C(=O)c2c[nH]c3ccccc23)cc1
41.3 µg/mL | O=C(C[n+]1ccc(/C=N/O)cc1)NCc1ccccc1.[Cl-]
20.4 µg/mL (≈ 62.7 µM) | CC(=O)Nc1ccc(NC(=O)CNC(=O)c2cccc(C)c2)cc1

solubility kinetic | Structure (SMILES)
33.6 µg/mL (≈ 83.5 µM) | COc1ccc(C(=O)NCc2ccccc2C)cc1S(=O)(=O)NC1CCCC1
18.5 µg/mL (≈ 65.9 µM) | COC(=O)C1=C(C)NC(=O)NC1c1ccccc1Cl (centres undefined)
4.9 µg/mL (≈ 14.7 µM) | CC(=O)Nc1cccc(OCC(=O)Nc2sccc2C(N)=O)c1
> 38.9 µg/mL | CCOc1ccc(C(=O)NCCc2cnc[nH]2)cc1
> 43.9 µg/mL | O=C(COC(=O)c1cnccn1)Nc1ccc(Cl)cn1
> 55 µg/mL | CN(CC(=O)Nc1ccccc1Cl)C(=O)COC(=O)c1cccs1
< 0.7 µg/mL | COc1ccccc1N1C(=O)S/C(=C\c2cccs2)C1=O
23.7 µg/mL (≈ 60.5 µM) | CCOc1ccc(CCNC(=O)COC(=O)c2ccc(C)s2)cc1OCC
> 40.2 µg/mL | Cc1cc(Nc2ccc(N(C)C)cc2)n2ncnc2n1
> 64.8 µg/mL | COCCCNC(=O)c1cc(S(=O)(=O)NCCCN2CCCC2=O)ccc1Cl
45.9 µg/mL (≈ 139 µM) | CN(C(=O)c1c[nH]c(=O)cc1C(F)(F)F)c1ccc(Cl)cc1
45.6 µg/mL (≈ 121 µM) | Cc1cc(OCC(O)CN(C)C(=O)C(C)Oc2ccccc2)ccc1Cl (centres undefined)
> 46.6 µg/mL | COCCOn1c(SCCOC)nc2ccccc2c1=O
46.6 µg/mL (≈ 147 µM) | O=C(NC(=S)N1CCc2ccccc21)c1ccccc1Cl
> 31.6 µg/mL | S=c1[nH]ccn1-c1ccccc1Cl
8.8 µg/mL (≈ 27.5 µM) | CC(C)(C)NS(=O)(=O)c1ccc2[nH]c3c(c2c1)CCCCC3
> 55.7 µg/mL | CCCN(C(=O)CSc1ccccc1C(=O)O)C1CCS(=O)(=O)C1 (centres undefined)
39.8 µg/mL (≈ 146 µM) | O=C(Nc1cccc(F)c1)c1ccc2ncsc2c1
43.8 µg/mL (≈ 146 µM) | Cc1ccc(N2CCN(C(=O)c3cccs3)CC2)cc1C
41.3 µg/mL (≈ 135 µM) | O=S(=O)(CCN1CCSCC1)c1ccc(Cl)cc1

solubility kinetic | Structure (SMILES)
7.4 µg/mL (≈ 19.4 µM) | COc1cccc(C(=O)Nc2cccc(NC(=O)c3ccccc3Cl)c2)c1
> 33.8 µg/mL | Cc1ccc(NC(=S)N(N)CCO)cc1
> 57.7 µg/mL | CC(C)(CC(=O)O)CC(=O)Nc1ccc(Oc2ccc(C(C)(C)C)cc2)nc1
> 54.2 µg/mL | CS(=O)(=O)N(CC(=O)N1CCCC1)c1ccccc1Br
4.1 µg/mL (≈ 14.3 µM) | Cc1cc(C)c(NC(=O)C(=O)NCc2ccco2)c(C)c1
45.2 µg/mL (≈ 142 µM) | c1ccc(-c2ncc(CN3CCN(c4ccccn4)CC3)[nH]2)cc1
38.2 µg/mL (≈ 131 µM) | N#Cc1cccc(CS(=O)(=O)c2ccc(Cl)cc2)c1
5.9 µg/mL (≈ 17 µM) | O=C(COC(=O)C12CC3CC(CC(Cl)(C3)C1)C2)Nc1ccccc1
1.8 µg/mL (≈ 5.72 µM) | O=C(NC(=S)NCCO)c1sc2ccccc2c1Cl
34.7 µg/mL (≈ 140 µM) | O=C(C1CC1)N1CCN(c2ccc(F)cc2)CC1
2.8 µg/mL (≈ 7.97 µM) | O=C(Nc1cc(Cl)ccc1Cl)C1Cc2ccccc2O/C1=N\O (centres undefined)
> 40.4 µg/mL | CN(C(=O)c1ccc2nccnc2c1)C1CCCCC1
19 µg/mL (≈ 47.1 µM) | CC(C)[C@H](NC(=O)c1ccccc1)C(=O)OCC(=O)Nc1sccc1C(N)=O
39.6 µg/mL (≈ 142 µM) | CCOC(=O)c1ccc(NC(=S)N2CCCC2)cc1
38.7 µg/mL (≈ 125 µM) | O=C1C(Cl)=C(N2CCOCC2)C(=O)N1c1ccccc1F
< 0.6 µg/mL | CC(=O)c1c2c3c(cccc3n(C)c1=O)C(=O)c1ccccc1-2
> 31.8 µg/mL | CCCC1NC(=S)NC(C)=C1C(C)=O (centres undefined)
23.9 µg/mL (≈ 108 µM) | Cc1cnc(NC(=O)C2CC=CCC2)s1 (centres undefined)
10.2 µg/mL (≈ 31.1 µM) | COc1ccc(NC(=O)c2ccc3c(c2)NC(=O)CO3)cc1OC
